Our source for the change in vivo values is patent EP0244595A2, “Dihydropyridine derivatives, process for their preparation and their use as pharmaceutical compounds” (Byk Gulden Lomberg Chemische Fabrik GmbH, priority 1986, dated 1987).

In this experiment the test system is genetisch hypertonen Ratten. Put plainly: Antihypertensive effect (systolic blood pressure, tail cuff) in spontaneously hypertensive rats after oral dosing. Format: in vivo, Ratte. The conditions noted are these: Rattus norvegicus; for change in vivo at 25 µmol/kg: 25 µmol/kg p.o. once daily on four consecutive days; for change in vivo at 10 µmol/kg: 10 µmol/kg p.o. once daily on four consecutive days. The source says: Die antihypertensive Wirksamkeit der erfindungsgemäßen Verbindungen kann am Modell der spontan hypertonen Ratte nachgewiesen werden.
Zur Bestimmung der antihypertensiven Wirkung werden die unten aufgeführten Verbindungen in den angegebenen Dosen an vier aufeinander folgenden Tagen an je 6 männlichen Ratten (Stamm SHR/N/Ibm/Bm, 250-350 g) mit genetisch bedingtem Hochdruck (systolischer Blutdruck > 180 mmHg) täglich einmal mittels Schlundsonde verabfolgt. Die Messung des Blutdrucks erfolgt jeweils 6 und gegebenenfalls 2 oder 24 Studnen nach Substanzgabe.
Die Blutdruckmessung wird in einer Wärmekammer bei 36°C vorgenommen, um eine bessere Durchblutung der Schwanzarterie zu erreichen. Hierzu werden die Tiere in perforierte Lochblechkäfige verbracht und 20 - 40 Min. nach Beginn der Aufwärmung gemessen. Zur Messung des systolischen arteriellen Drucks wird eine ringförmige Manschette mit aufblasbarer Gummimembran zur Unterbindung der Durchblutung und ein ringförmiger Piezokristallaufnehmer zur Erfassung der Pulswellen auf den Schwanz aufgeschoben. Nach erfolgter Unterbindung des Blutstroms in der Schwanzarterie wird der Manschettendruck kontinuierlich reduziert. Die Wiederkehr der Pulswellen bei Druckablassen wird automatisch als systolischer Blutdruck erkannt und ausgedruckt (Bühler, R. er al." Microprocessor-based automation of blood pressure measurement in the conscious rat. Proceedings of the 4th international symposium on rats with spontaneous hypertension and related studies, Rascher, R. et al. (Eds.), Schattauer Verlag, Stuttgart, New York, 1982, S. 410-413). Pulssignale und Druckverlauf werden zur Auswertung graphisch aufgezeichnet.
Zur Gewöhnung an den Meßvorgang werden die Tiere vor Substanzprüfung 14 Tage trainiert. In der zweiten Trainingswoche werden Blutdruck-Vorwerte erhoben. Tiergruppen, die Substanz erhalten, werden gegen eine Kontrollgruppe geprüft.
In der anschließenden Tabelle werden die untersuchten Verbindungen durch laufende Nummern gekennzeichnet, die mit den jewiligen Beispielnummern übereinstimmen.
Tabelle I gibt für die Vertreter der erfindungsgemäßen Verbindungen die prozentuale Senkung des Blutdrucks (BP) nach oraler Verabreichung bei der Ratte wieder.

Setting [1] is: 2h after dosing, mean of days 1+4, male SHR/N/Ibm/Bm rats, N=6, read-out: BP (% Änderung vs. Kontrolle), Mittelwert für Meßzeitpunkte: Stunden nach Gabe (Tage) 2h (1.+4.Tag).
Where [2] appears, read: 6h after dosing, mean of days 1-4, male SHR/N/Ibm/Bm rats, N=6, read-out: BP (% Änderung vs. Kontrolle), Mittelwert für Meßzeitpunkte: Stunden nach Gabe (Tage) 6h (1.-4.Tag).
The mark [3] stands for this setting: 24h after dosing, mean of days 1+3, male SHR/N/Ibm/Bm rats, N=6, read-out: BP (% Änderung vs. Kontrolle), Mittelwert für Meßzeitpunkte: Stunden nach Gabe (Tage) 24h (1.+3.Tag).

Counter-ions that a name gives are not always drawn. Like-named read-outs stand apart in the source and are kept apart here.

For `CC1=C(C(=O)OCCCN2CCC(c3ccccc3)CC2)C(c2cccc([N+](=O)[O-])c2)C(C(=O)O[C@@H]2C[C@H](C)CC[C@H]2C(C)C)=C(C)N1` (stereo partly drawn) [Beispiel 2a, 1,4-Dihydro-2,6-dimethyl-4-(3-nitrophenyl)-pyridin-3,5-dicarbonsäure-3-(-)-menthyl-5-[3-(4-phenylpiperidyl-1)-propyl]-ester-hydrochlorid], the change in vivo at 25 µmol/kg runs as follows: under setting [1], -25%; under setting [2], -24%; under setting [3], -16%.

For `COc1ccccc1N1CCN(CCCOC(=O)C2=C(C)NC(C)=C(C(=O)O[C@@H]3C[C@H](C)CC[C@H]3C(C)C)C2c2cccc([N+](=O)[O-])c2)CC1` (stereo partly drawn) [Beispiel 3a, 1,4-Dihydro-2,6-dimethyl-4-(3-nitrophenyl)-pyridin-3,5-dicarbonsäure-3-(-)-menthyl-5-{3-[4-(2-methoxyphenyl)-1-piperazinyl]-propyl}-ester-fumarat], the change in vivo at 25 µmol/kg by setting is: under setting [1], -46%; under setting [2], -42%; under setting [3], -15%.

In the case of `CC1=C(C(=O)OCCCN2CCN(c3ccc(C)cc3C)CC2)C(c2cccc([N+](=O)[O-])c2)C(C(=O)O[C@@H]2C[C@H](C)CC[C@H]2C(C)C)=C(C)N1` (single isomer, unassigned) [Beispiel 18, 1,4-Dihydro-2,6-dimethyl-4-(3-nitrophenyl)-pyridin-3,5-dicarbonsäure-3-(-)-menthyl-5-{3-[4-(2,4-dimethylphenyl)-1-piperazinyl]-propyl}-ester-fumarat], the change in vivo at 10 µmol/kg reads like this: under setting [1], -15%; under setting [2], -18%; under setting [3], -3%.

`CC1=C(C(=O)OCCCN2CCN(c3ccccc3)CC2)C(c2cccc([N+](=O)[O-])c2)C(C(=O)O[C@@H]2C[C@H](C)CC[C@H]2C(C)C)=C(C)N1` (single isomer, unassigned) [Beispiel 10, 1,4-Dihydro-2,6-dimethyl-4-(3-nitrophenyl)-pyridin-3,5-dicarbonsäure-3-(-)-menthyl-5-[3-(4-phenyl-1-piperazinyl)-propyl]-ester-fumarat]: the change in vivo at 25 µmol/kg reads like this: under setting [1], -34%; under setting [2], -34%; under setting [3], -6%.

Regarding `CC1=C(C(=O)OCCN2CCN(c3ccccn3)CC2)C(c2cccc([N+](=O)[O-])c2)C(C(=O)O[C@@H]2C[C@H](C)CC[C@H]2C(C)C)=C(C)N1` (single isomer, unassigned) [Beispiel 5b, 1,4-Dihydro-2,6-dimethyl-4-(3-nitropheny)-pyridin-3,5-dicarbonsäure-3-(-)-menthyl-5-{2-[4-(2-pyridyl)-1-piperazinyl]-ethyl}-ester-fumarat], the change in vivo at 10 µmol/kg was -20% under setting [1], -12% under setting [2] and -10% under setting [3].

With `CC1=C(C(=O)OCCCN(C)Cc2ccccc2)C(c2cccc([N+](=O)[O-])c2)C(C(=O)O[C@@H]2C[C@H](C)CC[C@H]2C(C)C)=C(C)N1` (single isomer, unassigned) [Beispiel 6], the change in vivo at 25 µmol/kg under setting [1] is -27%, the change in vivo at 25 µmol/kg under setting [2] is -33% and the change in vivo at 25 µmol/kg under setting [3] is -10%.

For `CCOc1ccccc1N1CCN(CCCOC(=O)C2=C(C)NC(C)=C(C(=O)O[C@@H]3C[C@H](C)CC[C@H]3C(C)C)C2c2cccc([N+](=O)[O-])c2)CC1` (single isomer, unassigned) [Beispiel 11, 1,4-Dihydro-2,6-dimethyl-4-(3-nitrophenyl)-pyridin-3,5-dicarbonsäure-3-(-)-menthyl-5-{3-[4-(2-ethoxyphenyl)-1-piperazinyl]-propyl}ester-fumarat], the change in vivo at 10 µmol/kg is -21% under setting [1], -26% under setting [2] and -10% under setting [3].

As for `COc1ccccc1N1CCN(CCCOC(=O)C2=C(C)NC(C)=C(C(=O)O[C@@H]3C[C@H](C)CC[C@H]3C(C)C)C2c2cccc([N+](=O)[O-])c2)CC1` (single isomer, unassigned) [Beispiel 3b, 1,4-Dihydro-2,6-dimethyl-4-(3-nitrophenyl)-pyridin-3,5-dicarbonsäure-3-(-)-menthyl-5-{3-[4-(2-methoxyphenyl)-1-piperazinyl]-propyl}-ester-fumarat], the change in vivo at 25 µmol/kg is -23% under setting [1], -36% under setting [2] and -17% under setting [3].

For the compound `CCOc1ccccc1N1CCN(CCCOC(=O)C2=C(C)NC(C)=C(C(=O)O[C@@H]3C[C@H](C)CC[C@H]3C(C)C)C2c2cccc(Cl)c2Cl)CC1` (single isomer, unassigned) [Beispiel 22, 4-(2,3-Dichlorphenyl)-1,4-dihydro-2,6-dimethyl-pyridin-3,5-dicarbonsäure-3-(-)-menthyl-5-{3-[4-(2-ethoxyphenyl)-1-piperazinyl]-propyl}ester-fumarat], the change in vivo at 25 µmol/kg by setting is: under setting [1], -46%; under setting [2], -55%; under setting [3], -43%.

With `COc1ccccc1N1CCN(CCOC(=O)C2=C(C)NC(C)=C(C(=O)O[C@@H]3C[C@H](C)CC[C@H]3C(C)C)C2c2cccc([N+](=O)[O-])c2)CC1` (single isomer, unassigned) [Beispiel 9, 1,4-Dihydro-2,6-dimethyl-4-(3-nitrophenyl)-pyridin-3,5-dicarbonsäure-3-(-)-menthyl-5-{2-[4-(2-methoxyphenyl)1-piperazinyl]-ethyl}-ester], the change in vivo at 10 µmol/kg is -22% under setting [1], -32% under setting [2] and -4% under setting [3].

On to `CC1=C(C(=O)OCCCN2CCC(C(=O)c3ccc(F)cc3)CC2)C(c2cccc([N+](=O)[O-])c2)C(C(=O)O[C@@H]2C[C@H](C)CC[C@H]2C(C)C)=C(C)N1` (single isomer, unassigned) [Beispiel 7, 1,4-Dihydro-2,6-dimethyl-4-(3-nitrophenyl)-pyridin-3,5-dicarbonsäure-3-(-)-menthyl-5-{3-[4-(4-fluorbenzoyl)-piperidyl-1]-propyl}-ester-hydrochlorid], for which the change in vivo at 10 µmol/kg is, setting by setting: under setting [1], -12%; under setting [2], -11%; under setting [3], 5%.

For `CC1=C(C(=O)OCCCN2CCN(c3ccc4c(c3)OCO4)CC2)C(c2cccc([N+](=O)[O-])c2)C(C(=O)O[C@@H]2C[C@H](C)CC[C@H]2C(C)C)=C(C)N1` (single isomer, unassigned) [Beispiel 16, 1,4-Dihydro-2,6-dimethyl-4-(3-nitrophenyl)-pyridin-3,5-dicarbonsäure-3-(-)-menthyl-5-{3-[4-(3,4-methylendioxyphenyl)-1-piperazinyt]-propyl}ester-fumarat], the change in vivo at 10 µmol/kg under setting [1] was -21%, the change in vivo at 10 µmol/kg under setting [2] was -21% and the change in vivo at 10 µmol/kg under setting [3] is -7%.
